{
  "source": "paper PMC8729770",
  "about": "“In Vitro Evaluation of Antimicrobial Peptides from the Black Soldier Fly (Hermetia Illucens) against a Selection of Human Pathogens” (Microbiology Spectrum, 2022)",
  "key": {"P. aeruginosa ATCC 9027 [1]": {"tested_on": "P. aeruginosa ATCC 9027", "experiment": "Cytoplasmic membrane depolarization assay, diSC3(5)", "type": "cell-based, Pseudomonas aeruginosa", "settings": "32-0.25 μM", "experimental": "To study the effects of the peptides on the membrane potential, 3,3′-dipropylthiadicarbocyanine iodide (diSC3(5); TCI) was used as described by Kwon et al. ([82]). P. aeruginosa ATCC 9027 was grown until the mid-log phase in MHB. Afterwards, the cells were centrifuged (3,000 × g, 15 min), washed and resuspended in 5 mM HEPES buffer (pH 7.4) supplemented with 20 mM glucose and 100 mM KCl to an OD600 of 0.2. […] The fluorescent signal was measured at λexcitation = 620 nm and λemission = 670 with a microplate reader (Promega) every 5 min during 1 h. Furthermore, 0.1% Triton-X was used as a positive control. Data were normalized based on the fluorescent signal in the presence of 50 μL supplemented HEPES buffer and 150 μL diSC3(5)-bacterial suspension. The assay was carried out in triplicate."}, "[2]": {"tested_on": "P. aeruginosa ATCC 15692 (PAO1)", "settings": "ATCC 15692, 16 h"}, "K. pneumoniae ATCC 13883": {"tested_on": "K. pneumoniae ATCC 13883", "settings": "ATCC 13883, 16 h"}, "P. aeruginosa ATCC 9027 [3]": {"tested_on": "P. aeruginosa ATCC 9027", "experiment": "Time-to-kill analysis", "type": "cell-based, Pseudomonas aeruginosa", "experimental": "To investigate the bactericidal kinetics of the selected AMPs, a time-to-kill analysis was performed as described previously by Mascio et al. ([78]). Briefly, peptide serial dilutions were prepared in 96-well plates (10 μL) and mixed with 190 μL of a P. aeruginosa ATCC 9027 culture of an optical density measured at a wavelength of 600 nm (OD600) of 0.1. Plates were incubated at 37°C and at selected time points (0 h, 0.5 h, 1 h, 2 h, 4 h, and 5 h), aliquots were removed and serially diluted in PBS. The dilutions were plated on TSA and incubated overnight at 37°C. Afterwards, bacterial viability was assessed by performing a standard plate count. Bactericidal activity was defined as a ≥3-log reduction compared with the untreated bacterial control. To avoid carry-over effect of the peptides, the undiluted sample was not plated, leading to a quantification limit of 10^3 CFU/mL ([78]). Bacterial counts were calculated for each AMP concentration at each time point using the average plate count. Afterwards, log10 reductions of the bacterial counts were calculated using the following formula: log10 reduction = log10 (viable microorganisms without AMP treatment/viable microorganisms with AMP treatment). Next, the average log10 reductions and the standard deviations of five independent experiments were calculated and visualized using GraphPad Prism 8."}, "E. coli ATCC 8739": {"tested_on": "E. coli ATCC 8739", "type": "cell-based, Escherichia coli", "settings": "for MBC E. coli ATCC 8739: plated on MHA, ≥3 log reduction vs growth control", "summary_of_the_method": "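Peptides were serially diluted (64–0.25 μM, repeat 32–0.016 μM) against 5 × 10^3 CFU/mL inocula in MHB (bacteria) or RPMI (fungi) at 37°C for 16 h (bacteria), 24 h (C. albicans) or 48 h (A. fumigatus). MIC was read visually with resazurin readout; MBC was defined as ≥3 log reduction on MHA.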"}, "P. aeruginosa ATCC 15442": {"tested_on": "P. aeruginosa ATCC 15442", "settings": "ATCC 15442, 16 h"}},
  "note": "Where two headings read alike, the source gives them in different places. Ends that are not written are not given here.",
  "data": [
    {"substance": "RWYKKIFKPVEKAVQRVRDGTLQALGVAQQAANVYATAQGAQQQRHA-NH2 [Hill-Cec10]", "values": [
      {"measurement": "cytoplasmic membrane depolarization (diSC3(5) fluorescence)", "setting": "P. aeruginosa ATCC 9027 [1]", "result": "cause cytoplasmic membrane depolarization"},
      {"measurement": "MBC P. aeruginosa ATCC 15692 (PAO1)", "setting": "[2]", "result": 16, "unit": "µM"},
      {"measurement": "MIC K. pneumoniae", "setting": "K. pneumoniae ATCC 13883", "result": "0.5 to 1", "unit": "µM"},
      {"measurement": "log10 reduction of P. aeruginosa", "setting": "P. aeruginosa ATCC 9027 [3]; 8 μM (8 × MIC Hill-Cec1, 4 × MIC Hill-Cec10), after 5 h, mean ± SD of five experiments", "result": "2.44 ± 0.46", "unit": "log10"},
      {"measurement": "log10 reduction of P. aeruginosa", "setting": "P. aeruginosa ATCC 9027 [3]; 16 μM (8 × MIC), after 5 h, mean ± SD of five experiments", "result": "4.60 ± 0.94", "unit": "log10"},
      {"measurement": "log10 reduction of P. aeruginosa", "setting": "P. aeruginosa ATCC 9027 [3]; 16 μM (8 × MIC), always (all experiments)", "result": "≥ 3", "unit": "log10"},
      {"measurement": "concentration needed to maintain bactericidal activity", "setting": "P. aeruginosa ATCC 9027 [3]; time-to-kill, ≥3-log10 reduction vs growth control", "result": "≥ 16", "unit": "µM"},
      {"measurement": "MIC E. coli ATCC 8739", "setting": "E. coli ATCC 8739; ATCC 8739, 16 h", "result": 0.50, "unit": "µM"},
      {"measurement": "MIC E. coli ATCC 8739", "setting": "E. coli ATCC 8739; repeat 1, 64-0.25 μM, determined visually, 16 h", "result": 0.25, "unit": "µM"},
      {"measurement": "MBC E. coli ATCC 8739", "setting": "E. coli ATCC 8739; repeat 1", "result": 0.25, "unit": "µM"},
      {"measurement": "MBC E. coli ATCC 8739", "setting": "E. coli ATCC 8739; repeat 2", "result": 32.00, "unit": "µM"},
      {"measurement": "MIC P. aeruginosa ATCC 15442", "setting": "P. aeruginosa ATCC 15442", "result": 4, "unit": "µM"}
    ]}
  ]
}
